Test results as given in publication PMC3217308 (Journal of Agricultural and Food Chemistry, 2011).

Target: T1, human sweet taste receptor, hT1R2/hT1R3 (Homo sapiens, UniProt Q7RTX0+Q8TE23)
T1 sequence (Q8TE23 20-839): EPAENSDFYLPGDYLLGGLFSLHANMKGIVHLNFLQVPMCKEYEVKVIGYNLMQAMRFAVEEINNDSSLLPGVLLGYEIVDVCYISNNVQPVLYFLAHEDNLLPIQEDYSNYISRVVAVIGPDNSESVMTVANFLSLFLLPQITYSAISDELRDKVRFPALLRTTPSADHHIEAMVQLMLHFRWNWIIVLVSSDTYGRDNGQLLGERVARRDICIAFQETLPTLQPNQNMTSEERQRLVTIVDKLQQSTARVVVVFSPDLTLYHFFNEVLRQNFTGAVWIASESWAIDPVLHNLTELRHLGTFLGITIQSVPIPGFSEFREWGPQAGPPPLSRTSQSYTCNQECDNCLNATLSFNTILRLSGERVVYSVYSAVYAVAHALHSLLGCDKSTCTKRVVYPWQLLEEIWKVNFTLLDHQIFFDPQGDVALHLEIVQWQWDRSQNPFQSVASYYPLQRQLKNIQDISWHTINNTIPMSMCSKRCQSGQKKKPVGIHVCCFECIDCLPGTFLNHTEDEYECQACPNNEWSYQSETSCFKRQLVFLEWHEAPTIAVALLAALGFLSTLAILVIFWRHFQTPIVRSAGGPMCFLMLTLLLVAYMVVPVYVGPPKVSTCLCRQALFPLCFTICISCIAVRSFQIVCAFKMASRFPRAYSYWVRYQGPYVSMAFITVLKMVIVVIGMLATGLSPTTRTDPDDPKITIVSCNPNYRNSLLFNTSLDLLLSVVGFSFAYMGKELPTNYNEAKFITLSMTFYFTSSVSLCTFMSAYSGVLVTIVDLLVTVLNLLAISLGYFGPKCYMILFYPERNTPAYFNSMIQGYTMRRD
T1 sequence (Q7RTX0 21-852): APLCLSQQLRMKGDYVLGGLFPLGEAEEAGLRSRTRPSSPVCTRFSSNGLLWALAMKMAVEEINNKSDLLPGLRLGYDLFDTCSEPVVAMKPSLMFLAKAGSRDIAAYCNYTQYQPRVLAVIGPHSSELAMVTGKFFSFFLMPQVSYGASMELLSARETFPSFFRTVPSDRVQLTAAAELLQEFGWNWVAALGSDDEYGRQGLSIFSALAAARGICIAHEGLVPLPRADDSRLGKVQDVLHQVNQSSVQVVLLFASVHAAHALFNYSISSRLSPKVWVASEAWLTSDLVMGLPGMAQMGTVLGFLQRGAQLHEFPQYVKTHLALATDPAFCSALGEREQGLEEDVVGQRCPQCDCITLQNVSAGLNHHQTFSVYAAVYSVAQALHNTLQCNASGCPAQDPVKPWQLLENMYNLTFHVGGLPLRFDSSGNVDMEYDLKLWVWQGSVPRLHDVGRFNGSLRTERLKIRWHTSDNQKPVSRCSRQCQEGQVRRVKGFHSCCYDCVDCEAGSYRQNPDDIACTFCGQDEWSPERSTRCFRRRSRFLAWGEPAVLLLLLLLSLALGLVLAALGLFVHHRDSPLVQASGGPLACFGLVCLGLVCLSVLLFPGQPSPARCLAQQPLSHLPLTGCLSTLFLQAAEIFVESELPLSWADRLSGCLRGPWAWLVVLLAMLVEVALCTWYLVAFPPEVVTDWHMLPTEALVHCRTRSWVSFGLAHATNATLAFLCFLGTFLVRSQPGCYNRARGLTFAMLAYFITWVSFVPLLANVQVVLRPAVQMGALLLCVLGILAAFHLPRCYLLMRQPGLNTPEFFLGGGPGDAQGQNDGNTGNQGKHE
Assay: Luminescence assay
Type: cell-based
Conditions: aequorin assay, 10–40 nM BCECF

- nonspecific signals: did not produce nonspecific signals
Substance: 2′,7′-bis-(2-carboxyethyl)-5-(and-6)-carboxyfluorescein [BCECF]
